For three molecules, KD and DC50 results are on record in publication PMC12427763 (2025).

A word on the KD: it is the concentration at which binding is half-saturated. A high value points to weaker binding.

For test [1], the system named is 5'-biotin c-myb IM (DNA, i motif) TCCTCCTCCTCCTTCTCCTCCTCCTCCGTGACCTCCTCCTCC
Put plainly: SPR. The note with it: K+ 100 mM; 20 mM MES pH 5.5, 5% DMSO.

Test [2] relates to 5'-biotin c-myb G4 (DNA, G4) GGAGGAGGAGGTCACGGAGGAGGAGGAGAAGGAGGAGGAGGA
Briefly: SPR. The note with it: K+ 100 mM; 50 mM Tris-HCl pH 7.4, 5% DMSO.

Test [3] concerns c-myb IM (5'-FAM) (DNA, i motif) TCCTCCTCCTCCTTCTCCTCCTCCTCCGTGACCTCCTCCTCC
Put plainly: MST. The note with it: K+ 100 mM, 20 mM MES pH 5.5.

Test [4] has as its system c-myb G4 (5'-FAM) (DNA, G4) GGAGGAGGAGGTCACGGAGGAGGAGGAGAAGGAGGAGGAGGA
Put plainly: MST. The note with it: K+ 100 mM; 50 mM Tris-HCl pH 7.4.

The subject of test [5] is c-Jun IM (DNA, i motif) TAACCCCCTCCCCCTCCCCCCTTTAAT
Briefly: SPR. Conditions: K+ 100 mM; 20 mM MES pH 5.5, 5% DMSO.

The subject of test [6] is c-Jun G4 (DNA, G4) AAGGGGGGAGGGGGAGGGGGTT
Put plainly: SPR. Conditions: K+ 100 mM; 50 mM Tris-HCl pH 7.4, 5% DMSO.

For test [7], the system named is Rb IM (DNA, i motif) GCCGCCCAAAACCCCCCG
Briefly: SPR. Conditions: K+ 100 mM; 20 mM MES pH 5.5, 5% DMSO.

Test [8] has as its system Bcl-2 IM (DNA, i motif) CAGCCCCGCTCCCGCCCCCTTCCTCCCGCGCCCGCCCCT
Put plainly: SPR. Conditions: K+ 100 mM; 20 mM MES pH 5.5, 5% DMSO.

Test [9] concerns Bcl-2 G4 (DNA, G4) GGGCGGGCGCGGGAGGAAGGGGGCGGG
Briefly: SPR. The note with it: K+ 100 mM; 50 mM Tris-HCl pH 7.4, 5% DMSO.

Test [10] has as its system Ret IM (DNA, i motif) CCCCGCCCCGCCCCGCCCCTA
Briefly: SPR. The note with it: K+ 100 mM; 20 mM MES pH 5.5, 5% DMSO.

The subject of test [11] is Kras G4 (DNA, G4) AGGGCGGTGTGGGAAGAGGGAAGAGGGGGAGG
Put plainly: SPR. Conditions: K+ 100 mM; 50 mM Tris-HCl pH 7.4, 5% DMSO.

Test [12] deals with Hras G4 (DNA, G4) TTGAGGGTGGGTAGGGTGGGTAAA
Put plainly: SPR. Conditions: K+ 100 mM; 50 mM Tris-HCl pH 7.4, 5% DMSO.

The test system of test [13] is HIF-1α IM (5'-FAM) (DNA, i motif) GCCCGAGCGCGCCTCCGCCCTTGCCCGCCCCCTG
Briefly: MST. The note with it: K+ 100 mM; 20 mM MES pH 5.5.

Test [14] has as its system Kras IM (5'-FAM) (DNA, i motif) CCTCCCCCTCTTCCCTCTTCCCACACCGCCCT
Put plainly: MST. Conditions: K+ 100 mM; 20 mM MES pH 5.5.

The subject of test [15] is c-Jun IM (5'-FAM) (DNA, i motif) TAACCCCCTCCCCCTCCCCCCTTTAAT
Briefly: MST. Conditions: K+ 100 mM; 20 mM MES pH 5.5.

The subject of test [16] is c-Jun G4 (5'-FAM) (DNA, G4) AAGGGGGGAGGGGGAGGGGGTT
Briefly: MST. The note with it: K+ 100 mM; 50 mM Tris-HCl pH 7.4.

Test [17] relates to Ret IM (5'-FAM) (DNA, i motif) CCCCGCCCCGCCCCGCCCCTA
Put plainly: MST. The note with it: K+ 100 mM; 20 mM MES pH 5.5.

The subject of test [18] is Rb IM (5'-FAM) (DNA, i motif) GCCGCCCAAAACCCCCCG
Put plainly: MST. The note with it: K+ 100 mM; 20 mM MES pH 5.5.

In test [19] the test system is Kras G4 (5'-FAM) (DNA, G4) AGGGCGGTGTGGGAAGAGGGAAGAGGGGGAGG
Put plainly: MST. The note with it: K+ 100 mM; 50 mM Tris-HCl pH 7.4.

The test system of test [20] is c-myb IM (DNA, i motif) TCCTCCTCCTCCTTCTCCTCCTCCTCCGTGACCTCCTCCTCC
Briefly: TO displacement, fluorescence. The note with it: K+ 100 mM plus potassium phosphate; BPES pH 5.5, 1 mM EDTA; tracer thiazole orange 2 μM.

Test [21] deals with c-myb G4 (DNA, G4) GGAGGAGGAGGTCACGGAGGAGGAGGAGAAGGAGGAGGAGGA
Briefly: TO displacement, fluorescence. Conditions: K+ 100 mM; 50 mM Tris-HCl pH 7.4; tracer thiazole orange 2 μM.

Turning to `O=C1c2cccc3cc(-c4ccc5c(c4)c4ccccc4n5CCN4CCCC4)cc(c23)C(=O)N1CCN1CCCC1`, the KD in [1] came to 12.90 µM; in [2], 3.03 µM; in [3] (supplement prints 10.39 ± 2.67), 10.06 ± 2.67 µM; in test [4], 1.11 ± 0.52 µM.
For the molecule `O=C1c2cccc3c(-n4cc(-c5ccc6c(c5)c5ccccc5n6CCN5CCCC5)nn4)ccc(c23)C(=O)N1CCN1CCCC1`, the KD in test [1] was found to be 3.34 µM; in test [2], 5.15 µM; in test [3], 2.11 ± 0.71 µM; in [4], 8.53 ± 3.22 µM.
With `O=C1c2cccc3cc(-c4ccc5c(c4)c4cc(-c6cn(CCN7CCCC7)nn6)ccc4n5CCN4CCCC4)cc(c23)C(=O)N1CCN1CCCC1`, the KD worked out at 0.58 µM in test [1]; 1.10 µM in [2]; 1.04 ± 0.40 µM in test [3]; 1.43 ± 0.64 µM in test [4]; 18.70 µM in [5]; 32.90 µM in test [6]. For the same molecule, the KD came out at 7.70 µM in test [7]; 18.50 µM in test [8]; 23.60 µM in test [9]; 7.71 µM in test [10]; 27.50 µM in [11]; 29.10 µM in test [12]. Moreover, the KD in [13] is 14.19 µM; in test [14], 20.59 µM; in test [15], 34.42 µM; in test [16], > 50 µM; in test [17] it was 18.00 µM; in test [18], 20.93 µM. This molecule also gave a KD in test [19] of 19.90 µM. The DC50 in [20] was found to be 0.8 µM; in [21] it was 1.0 µM.
